# Measurements from PubChem BioAssay AID1996.
# Details: buffer; pH 7.4; 200.0 µM
row,SMILES,solubility kinetic [µg/mL]
1,Cl.O=C(NCC(c1ccc(F)cc1)N1CCOCC1)c1ccc([N+](=O)[O-])o1 (stereo not given),> 60
2,Cc1ccc(C)n1-c1cccc(C(=O)Nc2ccccc2)c1,13.9
3,CN(C)CCNC(=S)Nc1ccccc1C(C)(C)C,> 41.9
4,O=C(O)c1cc(Oc2ccc(C(F)(F)F)cc2Cl)ccc1[N+](=O)[O-],> 54.2
5,O=C(/C=C/c1ccc([N+](=O)[O-])cc1)c1cccs1,1.6
6,CC1Cc2ccccc2N1C(=O)COC(=O)c1ccc([N+](=O)[O-])o1 (stereo not given),> 49.5
7,CCCCCCCOc1ccc(C2(C)NC(=O)NC2=O)cc1 (stereo not given),9.3
8,COc1ccc(OCC(=O)NS(=O)(=O)c2ccccc2)cc1,> 48.2
9,COc1ccc(Cl)cc1NC(=O)CN(C)CC(=O)NCc1ccc(F)cc1,> 59.1
10,S=C(NCc1ccccc1)Nc1cccc2cnccc12,> 44
11,COc1cccc(CNC(=O)CCSCc2ccccc2F)c1,41.8
12,O=C(CN1C(=O)CNC1=O)Nc1cc(Cl)cc(Cl)c1,> 45.3
13,Cc1nc([N+](=O)[O-])c(Br)n1Cc1ccccc1,> 44.4
14,Clc1ccc(-c2cc(-c3ccccn3)on2)c(Cl)c1,< 0.3
15,O=S(=O)(c1ccccc1)N1CCc2ccccc2C1,< 0.6
16,CCOc1cc(Cl)c(CNCCCN2CCOCC2)cc1OC,> 51.4
17,O=C(Nc1ccc2c(c1)CCC2)c1cccs1,30.8
18,Cl.O=C(CCN1CCN(c2ccccc2F)CC1)c1ccc(Br)cc1,42.3
19,CC(C)n1c(SCC(=O)NC2CC2)nnc1-c1ccco1,> 46
20,Cn1c(O)c(C=NC2CCN(Cc3ccccc3)CC2)c(=O)[nH]c1=O,> 51.4
21,COC(=O)Cn1c(N2CCCC2)nc2c1c(=O)n(C)c(=O)n2C,> 48.2
22,Cn1c(CCNC(=O)C2CCCCC2)nc2cc([N+](=O)[O-])ccc21,44
23,O=Cc1c(NCCCN2CCCC2=O)c2ccccc2[nH]c1=O,> 47
24,CC(=O)c1c(C)n(-c2ccc(C)cc2)c2ccc(O)cc12,< 0.6

row,SMILES,solubility kinetic [µg/mL]
1,CN1CCN(c2ccc(CNS(=O)(=O)Cc3ccc(Cl)cc3)cc2)CC1,2.8
2,CC(=C\c1ccccc1)/C=C1/SC(=S)N(CCCC(=O)O)C1=O,> 52.1
3,O=C(NC1C2CC3CC(C2)CC1C3)c1ccc2c(c1)OCO2 (stereo not given),7.9
4,NCCc1c(Cc2ccccc2)[nH]c2ccccc12,34.5
5,Cn1c(-c2cc3ccccc3oc2=O)nc2ccccc21,2.5
6,CCc1nonc1NC(=O)c1oc2ccc(F)cc2c1C,0.3
7,CCOC(=O)C1=C(COC(=O)Cc2ccccc2)NC(=O)NC1C (stereo not given),> 49.9
8,Cc1ccc(S(=O)(=O)NC(=O)Nc2ccccc2)cc1,41.8
9,COc1ccccc1C1CCN(Cc2ccccc2)CC1,31.1
10,O=C(CC(=O)NCCc1ccccc1)NCCc1ccccc1,> 46.6
11,N/C(=N\OC(=O)c1ccc2c(c1)OCO2)c1ccncc1,> 42.8
12,Cc1ccc(CN(C)C(=O)CCNS(=O)(=O)c2ccccc2)o1,> 50.5
13,O=C(c1ccc([N+](=O)[O-])cc1[N+](=O)[O-])N1CCCC1,> 39.8
14,Cc1nc(Nc2ccccc2)sc1C(=O)Nc1ccccc1,1.6
15,CCN(CC)CC#CC(O)(c1ccccc1)c1ccccc1,> 44
16,Cc1cccc(N2C(=O)CN(Cc3ccccc3)C2=S)c1,10
17,CN(C(=O)c1ccc(-c2ccccc2)cc1)C1CCCCC1,1.5
18,CC(C)OCc1ccc(C(=O)N2CCN(CC(=O)N3CCCC3)CC2)cc1,> 56
19,COc1ccc(Nc2nccc(-c3cccc(N)c3)n2)cc1,22.5
20,CN(C)c1cccc(NC(=O)c2cccc3ccccc23)c1,6.1
21,COc1ccccc1CC(=O)Nc1ccon1,> 34.8
22,O=C(CN1C(=O)c2ccccc2S1(=O)=O)c1ccc(F)cc1,9.7
23,O=C(CCNC(=O)c1ccco1)Nc1ccc(C(F)(F)F)cc1,23.4
24,Fc1ccccc1-c1nc(-c2cnccc2C(F)(F)F)no1,8

row,SMILES,solubility kinetic [µg/mL]
1,O=C(NC1CC1)c1cc2cc3ccccc3nc2s1,0.9
2,O=C(CCCCCCCCN1C(=O)c2ccccc2C1=O)N1CCOCC1,43.4
3,CC(=O)c1ccc(NC(=O)c2ccccc2-c2ccccc2C(=O)O)cc1,> 53.9
4,O=C(c1cccc(C(F)(F)F)c1)N1CCOc2ccccc21,37.5
5,Cc1ccc(O)c(NC(=O)c2noc(C(C)C)c2[N+](=O)[O-])c1,40.5
6,COc1ccc(C2CC(=O)C(C=NCC(C)C)=C(O)C2)cc1 (stereo not given),40.6
7,COc1ccc(CNC(=O)CN(c2ccc(C(C)=O)cc2)S(=O)(=O)c2ccc(C)cc2)cc1OC,4.1
8,Cc1cc(=O)[nH]c(SCc2ccc(Cl)cc2Cl)n1,1.2
9,Cc1ccc(S(=O)(=O)N(C)CC(=O)N2CC(C)OC(C)C2)cc1 (stereo not given),> 51.1
10,CCCCCn1c(C)c2c(OCC)cccc(=O)c2c1C,9.4
11,CC(=O)Nc1ccc(S(=O)(=O)NCC(=O)Nc2ccc3c(c2)OCO3)cc1,> 58.7
12,N/C(=N\OC(=O)Nc1ccccc1)c1cccc(C(F)(F)F)c1,27.9
13,CCCC(=O)C1=C(O)C(C(=O)OC)C(C)(C)CC1=NCCc1ccccc1 (stereo not given),53.4
14,Cc1cc(=O)n2c(n1)SCOC2,> 27.6
15,CCOC(=O)CN1C(=O)SC(Nc2ccc(C)cc2)C1=O (stereo not given),> 46.3
16,Fc1ccccc1CNc1ncnc2sccc12,9.9
17,Cn1c(SCC(=O)NC2CCCC2)nnc1C(F)(F)F,> 46.2
18,C=CCNC(=S)N1CCC(Cc2ccccc2)CC1,31.5
19,Cc1ccnc(NC(=O)COc2ccc3c(c2)CCC3)c1,1.6
20,Cc1onc(-c2ccccc2Cl)c1C(=O)N1CC(C)CC(C)C1 (stereo not given),> 49.9
21,O=[N+]([O-])c1ccccc1CN1CC=C(c2ccc(F)cc2)CC1,2.3
22,O=C(O)c1cc(-c2cccs2)nc2ccc(F)cc12,> 41
23,COc1ccc(CCNC2CCC(c3ccccc3)CC2)cc1 (stereo not given),> 46.4
24,O=C(O)c1ccc(OCC(O)Cn2c3ccccc3c3ccccc32)cc1 (stereo not given),> 54.2

row,SMILES,solubility kinetic [µg/mL]
1,CCOc1ccc(NC(=O)C(CC(=O)O)Cc2ccc(Br)cc2)cc1 (stereo not given),50
2,CN1CC(=O)N(CC(=O)Nc2cccc3ccccc23)C1=O,> 44.6
3,O=C1CC(C(=O)N2CCc3ccccc32)CN1c1ccccc1 (stereo not given),9.2
4,CC(=O)c1sc(NC(=O)c2ccc(Cl)cc2)nc1C,0.5
5,Cc1nc(SCC(=O)NC2CC2)c2c(C)c(C)sc2n1,11.6
6,CCOC(=O)C1=C(C)N(C)C(=O)NC1c1c(O)ccc2ccccc12 (stereo not given),> 51.1
7,CC(C)c1ccc(NC2=CC(=O)CC(C)(C)C2)cc1,2.6
8,COc1ccc2[nH]c3c(=O)n(CCN4CCOCC4)cnc3c2c1,> 49.3
9,COC(=O)c1ccc(N2CCN(c3ccccc3)CC2)c(N)c1,0.8
10,COC(=O)CSc1nc(C)cc(C)n1,> 31.8
11,Cc1ccccc1C1NC(=O)c2ccccc2O1 (stereo not given),18.3
12,COc1ccccc1Nc1nc2cc(C)ccc2cc1C#N,< 0.2
13,COc1ccc(-c2c(C#N)sc(C(N)=O)c2-c2ccc(OC)cc2)cc1,< 0.4
14,O=C(NC12CC3CC(CC(C3)C1)C2)c1ccc([N+](=O)[O-])cc1,5.4
15,CC(NC(=O)COC(=O)Cn1cc(C(F)(F)F)ccc1=O)c1ccccc1 (stereo not given),> 57.3
16,Cc1ccc(NC(=O)N2CCCCCC2)c(C)c1,> 37
17,CSc1ncccc1C(=O)OCC(=O)c1cc(C)n(C)c1C,3.9
18,N#CC1(NC(=O)COC(=O)/C=C/c2ccc3ccccc3n2)CCCCC1,3
19,Cc1occc1C(=O)Nc1ccccc1C#N,> 33.9
20,O=C(NCCNC(=O)c1ccccc1O)c1ccccc1O,32.3
21,COc1cc(OC)c(C2CC(=O)N3CN(C)CSC3=C2C#N)cc1OC (stereo not given),43.3
22,CCOC(=O)c1cn(CC#N)c2cc(F)c(F)cc2c1=O,> 43.8
23,O=C(COC(=O)C1CC1)NCc1ccccc1,> 35
24,COc1ccc(OCCn2ccnc2)cc1,26.4

row,SMILES,solubility kinetic [µg/mL]
1,CC(C)[C@H](N[C@@H](C)c1ccccc1)c1c(O)ccc2ccccc12,2.2
2,COCc1cc(=O)oc2cc(NS(=O)(=O)c3ccc(C)cc3)ccc12,1.3
3,COc1ccc(NC(=O)CN2C(=O)CSC2=O)cc1,> 42
4,O=C1C(=O)N(CCS(=O)(=O)c2ccccc2)c2ccccc21,> 47.3
5,Cc1[nH]c2ccccc2c1C(=O)CN1CC(C)OC(C)C1 (stereo not given),39.4
6,CCOc1cc(N2CCOCC2)c(OCC)cc1NC(=O)c1cc(S(=O)(=O)N2CCOCC2)ccc1F,6.5
7,Cl.O=C1NCC2(CCN(CCc3ccccc3)CC2)O1,> 44.5
8,O=C(NN=C1CCCCCCC1)c1ccc(F)cc1,> 39.3
9,O=S(=O)(c1cccs1)N1CCN(c2ccccc2F)CC1,15.6
10,Cc1cccc(NC(=S)N2CCCCC2c2cccnc2)c1C (stereo not given),> 48.8
11,CC1CCN(C(=O)CN2C(=O)COc3ccc(Cl)cc32)CC1,> 48.4
12,CC(C)[N+](C)(CCOC(=O)C1c2ccccc2Oc2ccccc21)C(C)C.[Br-],> 67.3
13,COc1ccc(CNC(=O)CC(C)c2ccccc2)cc1 (stereo not given),36.9
14,Fc1cccc(Cl)c1CNc1ccc(N2CCCC2)cc1,0.7
15,Cc1ccccc1N1CCN(S(=O)(=O)c2cccs2)CC1,4
16,O=C(NCCCn1ccnc1)c1cccc(Cl)c1,> 39.6
17,CCOc1ccc(C(=O)NCC(=O)N2CCCCCCC2)cc1,> 47.8
18,COc1ccc(Nc2oc(-c3ccccc3)nc2C#N)cc1,0.5
19,NC(=O)c1cc(-c2ccccc2)nc2ccc(Br)cc12,1.8
20,COc1cccc(C(=O)Nc2c(F)cccc2F)c1,> 39.5
21,Cc1ccc(N/C=C/C(=O)c2ccco2)c(O)c1,1.4
22,NC(=O)c1ccc(NC(=O)CN2C(=O)NC3(CCCCCCC3)C2=O)cc1,> 55.9
23,CCc1c(C#N)sc(C(N)=O)c1CC,> 31.2
24,COc1ccc(NC(=O)COc2ccccc2)cc1Cl,34
